The values below come from PubChem BioAssay (NCI).

Structures are written as SMILES.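 Five concentrations, 48 hours, 96-well plates. Abbreviation: GI50, concentration required for 50% inhibition of growth. TGI denotes the concentration required for complete inhibition of growth.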

Some test systems named below: NCI-H522 lung; LOX IMVI melanoma; UACC-257 melanoma; SK-MEL-28 melanoma; CAKI-1 renal; M14 melanoma; SF-268 CNS; NCI/ADR-RES ovarian; 786-0 renal; PC-3 prostate.
Holding throughout (assay): NCI anticancer screen, dose series, 48 h

For `CCN1C(=O)CNc2ncc(-c3ccc(-c4ncn[nH]4)nc3C)nc21`, the GI50 in the test on NCI-H522 lung was 147 nM; in the test on LOX IMVI melanoma, 205 nM; with UACC-257 melanoma, 184 nM; in the test on SK-MEL-28 melanoma it was 115 nM; in the test with CAKI-1 renal, 44.1 nM; in the test on M14 melanoma, 91.7 nM. Also, the GI50 in the test with SF-268 CNS is 235 nM; with NCI/ADR-RES ovarian it was 284 nM; in the test on 786-0 renal it was 117 nM; in the test on PC-3 prostate, 70.6 nM. For the same compound, the TGI in the test on NCI-H522 lung stood at 2880 nM; in the test on LOX IMVI melanoma it was 2470 nM; with UACC-257 melanoma, 2110 nM; with SK-MEL-28 melanoma, 1440 nM; in the test on CAKI-1 renal, 576 nM; in the test on M14 melanoma, 2790 nM. Further, the TGI with SF-268 CNS turned out to be 10200 nM; with NCI/ADR-RES ovarian, 3580 nM; with 786-0 renal, 4350 nM; in the test with PC-3 prostate, 1970 nM.
Regarding `CC/C=C\C[C@@H]1C/C=C2/C(=O)C=C[C@H]2C/C=C\CCCC(=O)O1`, the GI50 in the test on NCI-H522 lung was 231 nM; in the test on LOX IMVI melanoma it was 145 nM; in the test with UACC-257 melanoma, 1370 nM; with SK-MEL-28 melanoma, 424 nM; with CAKI-1 renal, 420 nM; in the test with M14 melanoma, 237 nM. For the same compound, the GI50 with SF-268 CNS was 1340 nM; in the test on NCI/ADR-RES ovarian, 349 nM; with 786-0 renal it was 818 nM; in the test with PC-3 prostate, 535 nM. Moreover, the TGI amounted to 737 nM in the test with NCI-H522 lung; 323 nM in the test on LOX IMVI melanoma; 3390 nM in the test on UACC-257 melanoma; 1850 nM in the test with SK-MEL-28 melanoma; 1770 nM in the test with CAKI-1 renal; 1030 nM in the test with M14 melanoma. Also, the TGI in the test with SF-268 CNS worked out at 3670 nM; with NCI/ADR-RES ovarian it was 18700 nM; in the test with 786-0 renal it was 2180 nM; in the test on PC-3 prostate it was 2390 nM.
With `CCOC(=O)Sc1ncnc2nc[nH]c12`, the GI50 in the test on NCI-H522 lung was 3330 nM; with LOX IMVI melanoma, 348 nM; in the test on UACC-257 melanoma it was 7200 nM; with SK-MEL-28 melanoma, 43700 nM; in the test on CAKI-1 renal, 579 nM; in the test with M14 melanoma, 408 nM. In addition, the GI50 is 3890 nM in the test on SF-268 CNS, 3470 nM in the test on NCI/ADR-RES ovarian, 2310 nM in the test on 786-0 renal and 4070 nM with PC-3 prostate. For the same compound, the TGI in the test with NCI-H522 lung was greater than 100000 nM; with LOX IMVI melanoma, greater than 100000 nM; with UACC-257 melanoma it was greater than 100000 nM; in the test on SK-MEL-28 melanoma, greater than 100000 nM; in the test on CAKI-1 renal it was 6310 nM; with M14 melanoma, greater than 100000 nM. Moreover, the TGI in the test on SF-268 CNS, in the test on NCI/ADR-RES ovarian, with 786-0 renal and in the test with PC-3 prostate was greater than 100000 nM throughout.
With `O=C(N/N=C/c1cccc(O)c1O)c1ccccc1`, the GI50 in the test with NCI-H522 lung is 323 nM; with LOX IMVI melanoma, 511 nM; with UACC-257 melanoma, 895 nM; with SK-MEL-28 melanoma, 1240 nM; in the test with CAKI-1 renal it was 519 nM; with M14 melanoma it was 695 nM. Moreover, the GI50 in the test with SF-268 CNS was 567 nM; with NCI/ADR-RES ovarian it was 648 nM; in the test on 786-0 renal, 1480 nM; in the test on PC-3 prostate it was 725 nM. Further, the TGI with NCI-H522 lung was 2250 nM; in the test on LOX IMVI melanoma, greater than 100000 nM; in the test with UACC-257 melanoma, 7050 nM; in the test with SK-MEL-28 melanoma, greater than 100000 nM; in the test with CAKI-1 renal, 16500 nM; in the test on M14 melanoma it was 11500 nM. Further, the TGI in the test with SF-268 CNS, with NCI/ADR-RES ovarian, in the test on 786-0 renal and in the test on PC-3 prostate was greater than 100000 nM each time.
As to `CCN(CC)c1ccc(C(=N)c2ccc(N(CC)CC)cc2)cc1`, the GI50 in the test on NCI-H522 lung is 193 nM; in the test with LOX IMVI melanoma, 598 nM; in the test on UACC-257 melanoma, 744 nM; with SK-MEL-28 melanoma, 916 nM; in the test with CAKI-1 renal, 588 nM; in the test on M14 melanoma, 524 nM. Besides, the GI50 in the test with SF-268 CNS was 602 nM; in the test on NCI/ADR-RES ovarian, 412 nM; in the test with 786-0 renal, 646 nM; in the test with PC-3 prostate, 492 nM. The TGI in the test with NCI-H522 lung came to 765 nM; in the test with LOX IMVI melanoma, 2020 nM; in the test on UACC-257 melanoma, 2250 nM; in the test on SK-MEL-28 melanoma, 2810 nM; in the test with CAKI-1 renal, 5850 nM; with M14 melanoma, 1830 nM. In addition, the TGI was 2670 nM with SF-268 CNS, 1830 nM with NCI/ADR-RES ovarian, 2050 nM in the test with 786-0 renal and 4760 nM with PC-3 prostate.
On to `COc1ccc(OC)c(/C=C/C(=O)N/N=C/c2ccc(Cl)cc2)c1`, for which the GI50 in the test with NCI-H522 lung is 29.8 nM; in the test with LOX IMVI melanoma, 115 nM; with UACC-257 melanoma it was 36500 nM; in the test on SK-MEL-28 melanoma, 372 nM; in the test on CAKI-1 renal it was 78.6 nM; with M14 melanoma, 63.3 nM. Moreover, the GI50 was 235 nM in the test on SF-268 CNS, 36.4 nM in the test on NCI/ADR-RES ovarian, 143 nM in the test with 786-0 renal and 105 nM in the test with PC-3 prostate. The TGI was 5720 nM in the test with NCI-H522 lung; greater than 100000 nM in the test on LOX IMVI melanoma; greater than 100000 nM in the test on UACC-257 melanoma; greater than 100000 nM with SK-MEL-28 melanoma; greater than 100000 nM in the test on CAKI-1 renal; greater than 25900 nM in the test with M14 melanoma. Besides, the TGI was greater than 100000 nM in the test on SF-268 CNS, 215 nM in the test on NCI/ADR-RES ovarian, greater than 100000 nM in the test on 786-0 renal and greater than 100000 nM with PC-3 prostate.
Take `O=C(c1cccc(O)c1O)c1cn(Cc2ccc(F)cc2)c2cccc(O)c12`: the GI50 in the test with NCI-H522 lung is 1380 nM; in the test on LOX IMVI melanoma, 2580 nM; with UACC-257 melanoma, 4440 nM; in the test on SK-MEL-28 melanoma it was 6010 nM; in the test with CAKI-1 renal it was 4130 nM; with M14 melanoma, 3430 nM. Besides, the GI50 is 3510 nM in the test with SF-268 CNS, 2590 nM with NCI/ADR-RES ovarian, 7460 nM in the test on 786-0 renal and 6920 nM with PC-3 prostate. Besides, the TGI in the test with NCI-H522 lung worked out at 8080 nM; in the test on LOX IMVI melanoma, 16100 nM; with UACC-257 melanoma it was 14300 nM; with SK-MEL-28 melanoma it was 19500 nM; in the test on CAKI-1 renal, 18500 nM; in the test on M14 melanoma it was 13400 nM. The TGI in the test with SF-268 CNS amounted to 16200 nM; in the test with NCI/ADR-RES ovarian, 15200 nM; in the test on 786-0 renal, 20800 nM; in the test with PC-3 prostate, 26700 nM.
